In patent US20190345202A1, “ANDROGEN RECEPTOR ANTISENSE OLIGONUCLEOTIDES” (OliPass Corporation, priority 2016, published 2019):

What was measured:
10-mer complementary DNA = assay: Tm of duplex between PNA and 10-mer complementary DNA (UV/Vis); format: binding; conditions: 4 μM PNA and 4 μM 10-mer DNA, aqueous buffer pH 7.16, 10 mM sodium phosphate, 100 mM NaCl
Experimental: The PNA derivatives in Table 1 were evaluated for their binding affinity for 10-mer DNAs complementarily targeting either the N-terminal or C-terminal. The binding affinity was assessed by Tm value for the duplex between PNA and 10-mer complementary DNA. The duplex between PNA derivatives in Table 1 and fully complementary DNAs show Tm values too high to be reliably determined in aqueous buffer solution, since the buffer solution tends to boil off during the Tm measurement.
Tm values were determined on an UV/Vis spectrometer as follows. A mixed solution of 4 μM PNA oligomer and 4 μM complementary 10-mer DNA in 4 mL aqueous buffer (pH 7.16, 10 mM sodium phosphate, 100 mM NaCl) in 15 mL polypropylene falcon tube was incubated at 90° C. for a minute and slowly cooled down to ambient temperature over several minutes. Then the solution was transferred into a 3 mL quartz UV cuvette equipped with an air-tight cap, and subjected to a Tm measurement at 260 nm on an Agilent 8453 UV/Visible spectrophotometer or a similar one as described in the prior art [PCT/KR2009/001256] or with minor modifications. The 10-mer complementary DNAs for Tm measurement were purchased from Bioneer (www.bioneer.com, Dajeon, Republic of Korea) and used without further purification.

full-length AR protein = assay: Western blot of AR protein in MCF7 cells; format: cell-based, human; conditions: 100 zM to 300 aM, 48 hours
Experimental: 4 culture dishes were used for 4 negative controls. 48 hours later, cells were washed 2 times with cold PBS, and then subjected to lysis with 200 μL 1× cell lysis buffer (Cat. No. 9803, Cell Signaling Tech) supplemented with 1× protease inhibitor (Cat. No. P8340, Sigma). The lysates were collected in 1.5 ml e-tube. 200 μL of each lysate was mixed with 100 μL 3× sample buffer, and boiled for 5 min at 100 ? . 20 μL of each lysate (12 lysates in total). 4 negative controls and 8 ASO treatment samples) was subjected to electrophoretic separation on a 8% SDS-PAGE gel, and transferred onto a 0.2 μm PVDF membrane. The membrane was probed with anti-AR antibody (Cat. No. 5153, Cell Signaling Tech) and anti-β-actin antibody (Cat. No. sc4778, Santa Cruz). FIG. 10A provides the AR Western blot data obtained therefrom. Multiple (negative) control samples were used to overcome technical artifacts of western blot procedures.

C57BL/6 mice = assay: Hair growth in C57BL/6 mice upon topical administration (brightness score, hair weight); format: in vivo, mouse; conditions: for average hair weight: hair growth between Day 0 and Day 21
Experimental: (§1) [Hair Removal and Grouping] In Day 0, 7 week old female C57BL/6 mice were anesthetized with zoletil/rompun, and the hair in the back was cut and removed with a clipper and wax, respectively. Mice with flawless (i.e. spotless) hair removal were selected and randomly assigned into three groups (7 animals per group).
[Topical Administration] The topical solutions of “ASO 1” were prepared by diluting a mother stock solution of “ASO 1” to 0.2 fM or 1 fM in aqueous 30% (v/v) ethanol supplemented with 3% (v/v) glycerin. About 100 μL of 0 (negative control), 0.2, or 1 fM “ASO 1” was topically administered in the back of each animal using a cotton ball in Days 3, 7, 10, and 14.
[Digital Image Scoring for Hair Growth] For scoring the hair growth, the animals were anesthetized and photographed by group as shown in FIG. 11A using a digital camera at a fixed value of exposure time and illumination. The digital image for the area of the hair removal for each animal was selected and digitally scored for the average brightness over the selected area using “ImageJ” program. Lower brightness score is taken as faster hair growth. Brightness scores of individual animals were combined by group, and subjected to statistical analysis by student's t-test. FIG. 11B summarizes the relative brightness scores of the ASO treated groups against the control group. The relative brightness score tended to decrease with days in the treatment groups. […] Thus, “ASO 1” was concluded to promote hair growth upon topical administrations at 1 fM.
[Scoring by Hair Weight] In Day 21, the animals were anesthetized and the hair in the back was cut with a clipper. The hair samples from individual animals were combined by group, and weighed to evaluate the hair growth between Day 0 and Day 21. The average hair weight was 70.5 mg/animal for the control group, 90.8 mg/animal for the 0.2 fM treatment group, and 94.4 mg/animal for the 1 fM treatment group. Thus “ASO 1” was concluded to promote hair growth upon topical administrations at 0.2 fM as well as 1 fM.
as §1, with “(10” for “(7”
[Topical Administration] The topical solutions of “ASO 5” were prepared by diluting a mother stock solution of “ASO 5” to 1, 5, or 25 fM in aqueous 30% (v/v) ethanol supplemented with 3% (v/v) glycerin. About 100 μL of each ASO solution or vehicle (negative control) was topically administered to in the back of an animal using a cotton ball in Days 3, 7, 10, 14 and 21.
Following the shaving in Day 21, the animals received a single topical administration of either vehicle or “ASO 5” at 1 fM, 5 fM, or 25 fM. In Day 53, the hair in the back was collected by shaving with a clipper to determine the total amount of hair growth between Days 21 and 53. The average hair weights of the 1 fM, 5 fM, and 25 fM groups were 1,630%, 1,450%, and 771% of the non-treated group, respectively. Thus “ASO 5” was concluded to promote hair growth upon topical administrations at 1 to 25 fM.
as §1, with “(9” for “(7”
[Topical Administration] The topical solutions of “ASO 10” were prepared by diluting a mother stock solution of “ASO 10” to 1, 5, or 25 fM in aqueous 30% (v/v) ethanol supplemented with 3% (v/v) glycerin. About 100 μL of each ASO solution or vehicle (negative control) was topically administered to in the back of an animal using a cotton ball in Day 2.

androgen receptor = assay: AR IHC of skin samples after topical administration in mice; format: in vivo, mouse; conditions: topical 0.2 fM or 1 fM, skin sampled Day 24
Description: [AR IHC of Skin Sample] Following the shaving in Day 21, the mice received a single topical administration of either vehicle or “ASO 1” according to the group. In Day 24, the skin of the area with hair removal was sampled for immunohistochemistry (IHC) analysis against androgen receptor. The skin samples were cryo-sectioned and subjected to immunostaining in series with a primary anti-AR antibody (Cat. No. sc-816, Santa Cruz) at 1:100 dilution, with a secondary anti-IgG (Cat No. BA-1100, Vector) at 1:200 dilution, and then with Dylight 594-steptavidin (Cat No. SA-5594, Vector, Calif., USA) at 1:200 dilution for red fluoresence tagging. The IHC images were captured on an Olympus fluorescence microscope for changes in the AR expression level upon topical treatment with “ASO 1”.
[AR Immunohistochemistry of Skin Samples] After the hair cut in Day 27, The animals topically received further either vehicle or “ASO 10” at 1, 5, or 25 fM in Days 27 and 29. Skin samples of the back were collected in Day 30 for immunohistochemical analysis against androgen receptor. The skin samples were subjected to immunostaining against androgen receptor as described in “Example 7”. IHC images were captured on a Zeiss slide scanner. FIG. 14B is a representative set of AR IHC images. […] It would be difficult to clearly state that the AR expression in hair follicles decreased in the treatment groups due to the marked increases in the number of hair follicles in the treatment groups.

human AR mRNA = assay: qPCR (SYBR Green) of AR mRNA level in MCF7 cells; conditions: 5 hours

Substance | Tm Value, 10-mer DNA against C-Terminal (10-mer complementary DNA) [°C] | Tm Value, 10-mer DNA against N-Terminal (10-mer complementary DNA) [°C] | AR band intensity vs lysates without ASO treatment (full-length AR protein) | average hair weight (C57BL/6 mice; 0.2 fM topical) [mg/animal] | average hair weight (C57BL/6 mice; 1 fM topical) [mg/animal] | brightness score vs non-treated group (C57BL/6 mice; Day 13, 1 fM topical in Days 3, 7, 10, 14, lower brightness = faster hair growth) | AR expression in hair follicles (IHC) (androgen receptor) | AR expression in the muscle layer underneath the dermis (IHC) (androgen receptor) | exon message levels (exons 4-6) relative to negative control (human AR mRNA; 1 aM) | decrease of exon message levels (exons 4-6) (human AR mRNA; 100 zM)
Fethoc-TA(5)C-CAG(6)-GC(1O2)A-A(5)GG(6)-C—NH2 (antisense TACCAGGCAAGGC; chemistry not fully specified) [ASO 9] | 84.5 | 84.3 | – | – | – | – | – | – | – | –
Fethoc-C(1O2)TT-A(6)CC-A(6)GG(6)-CA(6)A-NH2 (antisense CTTACCAGGCAA; N-Fethoc, C-terminal amide, chemistry not fully specified) [ASO 13] | 87.0 | 83.0 | – | – | – | – | – | – | – | –
Fmoc-GA(5)A-GC(1O2)C-A(5)GG-C(1O2)AA(5)-G-NH2 (antisense GAAGCCAGGCAAG; N-Fmoc, C-terminal amide, chemistry not fully specified) [ASO 1] | – | – | considerably weaker | 90.8 | 94.4 | significantly lower | markedly inhibited | decreased | ~60 % of the negative control | more than 80%
Fethoc-GA(5)T-AC(1O2)C-A(5)GG(6)-CAA(5)-G-NH2 (antisense GATACCAGGCAAG; N-Fethoc, C-terminal amide, chemistry not fully specified) [ASO 8] | 86.0 | 87.4 | – | – | – | – | – | – | – | –
